Patent US20250011368A1, “DLL3 TARGETING PEPTIDES AND CONSTRUCTS THEREOF” (MARIANA ONCOLOGY INC., priority 2023, published 2025)
Numbered stars: 1 amine (or outer) side, 2 acyl side, 3 side chain; on linkers, the order of the positions; unused ones are H or OH. Bridge positions count the residues as written; N and C are the ends. Square brackets hold non-standard residues; d marks the D form. Peptide text beside a SMILES is read from it. * marks the point of attachment. Ala(piperidin-4-yl) = O=C([C@H](CC1CCN([*:3])CC1)N[*:1])[*:2]; DOTA = O=C(O)CN1CCN(CC(=O)O)CCN(CC(=O)*)CCN(CC(=O)O)CC1; Ala(morpholin-4-yl) = N[C@@H](CN1CCOCC1)C(=O)O; 2Nal = N[C@@H](Cc1ccc2ccccc2c1)C(=O)O; 3Pal = N[C@@H](Cc1cccnc1)C(=O)O; 4Pal = N[C@@H](Cc1ccncc1)C(=O)O

Experiments:
human DLL3 = target: T1, human DLL3 (Homo sapiens, UniProt Q9NYJ7); assay: Affinity determination by Surface Plasmon Resonance (SPR); type: binding; conditions: 25° C., biotinylated human DLL3 immobilized on streptavidin sensor chip, 1:1 binding model; read-out: SPR KD
T1 sequence (Q9NYJ7 27-618): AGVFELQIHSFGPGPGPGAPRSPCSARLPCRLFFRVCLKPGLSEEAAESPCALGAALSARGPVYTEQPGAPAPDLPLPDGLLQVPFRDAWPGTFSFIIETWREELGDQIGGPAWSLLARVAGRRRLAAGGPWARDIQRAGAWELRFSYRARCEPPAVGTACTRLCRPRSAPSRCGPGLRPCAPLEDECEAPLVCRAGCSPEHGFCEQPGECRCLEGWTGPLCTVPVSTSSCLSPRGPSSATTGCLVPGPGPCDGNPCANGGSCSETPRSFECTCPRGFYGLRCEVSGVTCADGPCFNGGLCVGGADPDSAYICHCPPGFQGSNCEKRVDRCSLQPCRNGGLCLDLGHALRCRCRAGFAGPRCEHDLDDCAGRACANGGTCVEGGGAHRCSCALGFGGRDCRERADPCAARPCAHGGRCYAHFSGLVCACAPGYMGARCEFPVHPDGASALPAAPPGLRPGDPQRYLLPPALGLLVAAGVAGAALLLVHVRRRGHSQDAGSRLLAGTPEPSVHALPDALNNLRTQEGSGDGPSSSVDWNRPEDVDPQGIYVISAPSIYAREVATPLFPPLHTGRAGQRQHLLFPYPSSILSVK
Outline: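 Biotinylated human DLL3 was captured on a streptavidin chip with a reference surface. Compounds at several concentrations were injected at 100 μL/minute in phosphate buffer (137 mM NaCl, 2.7 mM KCl, 0.05% P20, 2% DMSO). Affinity and kinetics came from 1:1 model fits of the sensorgrams.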

CT26.DLL3 cells [1] = assay: Internalization (out of bound fraction) of [177Lu]Lu-test peptide, CT26.DLL3 cells; type: cell-based; conditions: 1 hour at 37° C., glycine pH 2.5 wash
Protocol: (§1) [^177Lu]LuCl3 was received from venders in HCl solution. For every mCi of [^177Lu]LuCl3 added to the reaction vial (1.5 mL Eppendorf vial), ammonium acetate buffer (0.2 M, pH 4.9, 100 μL, containing 1% w/v ascorbic acid and 6% v/v ethanol) and peptide conjugate (1 nmol). A peptide conjugate of the present disclosure is also referred to herein as a “chelator-peptide”. The pH of the solution was determined to be approximately 5 by using pH strips. The reaction vial was incubated at 80° C., 700 RPM for 17-20 minutes. A sample from the reaction was analyzed by RP-HPLC using an Agilent Infinity II 1260 HPLC to determine reaction completion and radiochemical purity of [^177Lu]Lu-chelator-peptide. HPLC conditions: Waters XBridge BEH C18 Column, 130 Å, 3.5 um, 4.6 mm×250 mm; mobile phase: Solvent A=water (with 0.1% formic acid), solvent B=acetonitrile (with 0.1% formic acid). Gradients: 25-45% B in 10 minutes, 45-65% B in 12 minutes, 65-90% in 6 minutes at a flow rate of 0.5 mL/minute. Required amounts of the product was formulated in 1% PBSA for cell studies.
(§2) The study was conducted using SHP-77, CT26.WT, and CT26.DLL3 cells (Table 7) Adherent cell studies: The cells were cultured in appropriate culture media (20 mL) in tissue culture treated T150 flasks at 37° C. and 5% CO2. Adherent cells were detached (60-70% confluent) using 5 mL Versene at 37° C. for 3 minutes. After confirming the viability using countess and count of detached cells using Trypan blue, the cells were centrifuged at 4° C. for 5 minutes (1,000 rpm). The cell pellet obtained was washed once with PBS and resuspended in 1% PBSA to obtain the desired cell concentration (5-25 million cells/mL).
(§3) Cell numbers used for the assay were in the range of 5 million cells/condition −25 million cells/condition.
(§4) Total uptake: Cells were incubated with 300 μL (0.8 μCi) of the incubation buffer (containing radiolabeled peptide [^177Lu] Lu-test peptide) for 1 hour at 37° C. (Table 8). Post incubation, the cells were pelleted and washed 2 times using cold PBS+1% BSA. The supernatant and washes were combined and counted together as “unbound fraction” in a gamma counter. The cells were then resuspended in 300 μL of 1% PBS+1% BSA and counted in the gamma counter as “bound fraction”.
Internalization: The resuspended cells in 300 μl of 1% PBSA and counted in the gamma counter as “bound fraction” were collected in 1.5 mL Eppendorf tube and pelleted. The pelleted cells were incubated with 300 μl of 50 mM Glycine pH=2.5 for 3 minutes and then pelleted discarding the supernatant. This process was repeated one more time. The pelleted cells were washed with 300 μl of cold 1% PBSA and then resuspended in 300 μl 0.3M NaOH. This was counted in the gamma counter as “internalized fraction”.
(§5) In these Tables, “A” represents %≤25; “B” represents 25<%≤50; “C” represents %>50.

SHP-77 tumors = assay: Ex vivo biodistribution of radiolabeled peptides in nude mice bearing SHP-77 tumors; conditions: [177Lu]Lu labelling, nude mice bearing SHP-77 tumors (n = 3), 24 hours post-injection
Protocol: Mice were intravenously injected (via the lateral tail vein) with a bolus dose of the radiolabeled peptides for ex vivo biodistribution studies when tumor volumes were in range of 200-400 mm^3 for xenograft mice and when age of the mice was 5-7 weeks for tumor naïve mice studies. To assess the amount of radionuclide injected into individual mice the syringe was assayed in a dose calibrator before and after injection for [^177Lu]Lu-peptide.
Mice were euthanized at pre-determined time points and selected tissues were resected and collected into pre-weighed tubes. The tubes were then reweighed post resection, the difference giving the weight of each tissue. Radioactivity in each tissue was measured using a gamma counter. Counts were decay corrected to the time of injection and percentage of injected activity per gram (% IA/g) was calculated for each tissue based on the injected activity into each individual mouse. Injected activity was converted to counts based on the sensitivity of the gamma counter. The counts in tissue were then converted to the percentage of injected activity and this was divided by the mass of tissue to give % IA/g.

CT26.DLL3 cells [2] = assay: Cell binding (total uptake) of [177Lu]Lu-test peptide, CT26.DLL3 cells; type: cell-based; conditions: 1 hour at 37° C.
Protocol: as §1, §2, §3, §4, §5

CC[C@H](C)[C@H](NC(=O)[C@@H](NC(=O)[C@H](Cc1c[nH]c2ccccc12)NC(C)=O)[C@@H](C)O)C(=O)N[C@H]1CSSC[C@@H](C(=O)N[C@@H](Cc2c[nH]c3ccccc23)C(=O)N2CCC[C@H]2C(=O)N[C@H](CCCCNC(=O)CN2CCN(CC(=O)O)CCN(CC(=O)O)CCN(CC(=O)O)CC2)C(N)=O)NC(=O)[C@H](CC(N)=O)NC(=O)[C@H](Cc2cnc[nH]2)NC(=O)[C@H](Cc2ccc3ccccc3c2)NC(=O)[C@H](CC(N)=O)NC(=O)[C@H](CC(N)=O)NC1=O [compound 211, Ac-W-T-I-C(3)-N-N-(2Nal)-H-(Asn)-C(3)-W-P-[D-Lys(DOTA)]-NH2] (Ac-WTICNN[2Nal]HNCWP[dK](DOTA)-NH2; disulfide 4-10)
Kd (human DLL3): < 1 nM
% Internalization (out of bound fraction) (CT26.DLL3 cells [1]): B (25<%≤50)
kidney uptake (% IA/g) (SHP-77 tumors): D (% IA/g > 10 in kidney)
tumor uptake (% IA/g) (SHP-77 tumors): A (0 < % IA/g ≤ 5 in tumor)
% Binding (CT26.DLL3 cells [2]): A (%≤25)

CC[C@H](C)[C@H](NC(=O)[C@@H](NC(=O)[C@H](Cc1c[nH]c2ccccc12)NC(C)=O)[C@@H](C)O)C(=O)N[C@H]1CSSC[C@@H](C(=O)N[C@@H](Cc2c[nH]c3ccccc23)C(=O)N2CCC[C@H]2C(=O)N[C@H](CCCCNC(=O)CN2CCN(CC(=O)O)CCN(CC(=O)O)CCN(CC(=O)O)CC2)C(N)=O)NC(=O)[C@H](CC(=O)O)NC(=O)[C@H](Cc2cnc[nH]2)NC(=O)[C@H](Cc2ccc3ccccc3c2)NC(=O)[C@H](CC(N)=O)NC(=O)[C@H](CN2CCOCC2)NC1=O [compound 261, Ac-W-T-I-C(3)-[3-(1-morpholinyl)-Ala]-N-(2Nal)-H-D-C(3)-W-P-[D-Lys(DOTA)]-NH2] (Ac-WTIC[Ala(morpholin-4-yl)]N[2Nal]HDCWP[dK](DOTA)-NH2; disulfide 4-10)
Kd (human DLL3): < 1 nM
% Internalization (out of bound fraction) (CT26.DLL3 cells [1]): B (25<%≤50)
kidney uptake (% IA/g) (SHP-77 tumors): C (0 < % IA/g ≤ 10 in kidney)
tumor uptake (% IA/g) (SHP-77 tumors): A (0 < % IA/g ≤ 5 in tumor)
% Binding (CT26.DLL3 cells [2]): A (%≤25)

CC[C@H](C)[C@H](NC(=O)[C@@H](NC(=O)[C@H](Cc1c[nH]c2ccccc12)NC(C)=O)[C@@H](C)O)C(=O)N[C@H]1CSSC[C@@H](C(=O)N[C@@H](Cc2c[nH]c3ccccc23)C(=O)N2CCC[C@H]2C(=O)N[C@H](CCCCNC(=O)CN2CCN(CC(=O)O)CCN(CC(=O)O)CCN(CC(=O)O)CC2)C(N)=O)NC(=O)[C@H](CC(=O)O)NC(=O)[C@H](Cc2cnc[nH]2)NC(=O)[C@H](Cc2ccc3ccccc3c2)NC(=O)[C@H](CC(N)=O)NC(=O)[C@H](Cc2cccnc2)NC1=O [compound 263, Ac-W-T-I-C(3)-(3Pya)-N-(2Nal)-H-D-C(3)-W-P-[D-Lys(DOTA)]-NH2] (Ac-WTIC[3Pal]N[2Nal]HDCWP[dK](DOTA)-NH2; disulfide 4-10)
Kd (human DLL3): < 1 nM
% Internalization (out of bound fraction) (CT26.DLL3 cells [1]): B (25<%≤50)
kidney uptake (% IA/g) (SHP-77 tumors): C (0 < % IA/g ≤ 10 in kidney)
tumor uptake (% IA/g) (SHP-77 tumors): A (0 < % IA/g ≤ 5 in tumor)
% Binding (CT26.DLL3 cells [2]): A (%≤25)

CC[C@H](C)[C@H](NC(=O)[C@@H](NC(=O)[C@H](Cc1c[nH]c2ccccc12)NC(C)=O)[C@@H](C)O)C(=O)N[C@H]1CSSC[C@@H](C(=O)N[C@@H](Cc2c[nH]c3ccccc23)C(=O)N2CCC[C@H]2C(=O)N[C@H](CCCCNC(=O)CN2CCN(CC(=O)O)CCN(CC(=O)O)CCN(CC(=O)O)CC2)C(N)=O)NC(=O)[C@H](CC(=O)O)NC(=O)[C@H](Cc2cnc[nH]2)NC(=O)[C@H](Cc2ccc3ccccc3c2)NC(=O)[C@H](CC(N)=O)NC(=O)[C@H](Cc2ccncc2)NC1=O [compound 264, Ac-W-T-I-C(3)-(4Pya)-N-(2Nal)-H-D-C(3)-W-P-[D-Lys(DOTA)]-NH2] (Ac-WTIC[4Pal]N[2Nal]HDCWP[dK](DOTA)-NH2; disulfide 4-10)
Kd (human DLL3): < 1 nM
% Internalization (out of bound fraction) (CT26.DLL3 cells [1]): B (25<%≤50)
kidney uptake (% IA/g) (SHP-77 tumors): C (0 < % IA/g ≤ 10 in kidney)
tumor uptake (% IA/g) (SHP-77 tumors): A (0 < % IA/g ≤ 5 in tumor)
% Binding (CT26.DLL3 cells [2]): A (%≤25)

CC[C@H](C)[C@H](NC(=O)[C@@H](NC(=O)[C@H](Cc1c[nH]c2ccccc12)NC(C)=O)[C@@H](C)O)C(=O)N[C@H]1CSSC[C@@H](C(=O)N[C@@H](Cc2c[nH]c3ccccc23)C(=O)N2CCC[C@H]2C(=O)N[C@H](CCCCNC(=O)CN2CCN(CC(=O)O)CCN(CC(=O)O)CCN(CC(=O)O)CC2)C(N)=O)NC(=O)[C@H](CC(=O)O)NC(=O)[C@H](Cc2cnc[nH]2)NC(=O)[C@H](Cc2ccc3ccccc3c2)NC(=O)[C@H](Cc2ccncc2)NC(=O)[C@H](CC(N)=O)NC1=O [compound 266, Ac-W-T-I-C(3)-N-(4Pya)-(2Nal)-H-D-C(3)-W-P-[D-Lys(DOTA)]-NH2] (Ac-WTICN[4Pal][2Nal]HDCWP[dK](DOTA)-NH2; disulfide 4-10)
Kd (human DLL3): < 1 nM
% Internalization (out of bound fraction) (CT26.DLL3 cells [1]): A (%≤25)
kidney uptake (% IA/g) (SHP-77 tumors): C (0 < % IA/g ≤ 10 in kidney)
tumor uptake (% IA/g) (SHP-77 tumors): A (0 < % IA/g ≤ 5 in tumor)
% Binding (CT26.DLL3 cells [2]): A (%≤25)

CC[C@H](C)[C@H](NC(=O)[C@@H](NC(=O)[C@H](Cc1c[nH]c2ccccc12)NC(C)=O)[C@@H](C)O)C(=O)N[C@H]1CSSC[C@@H](C(=O)N[C@@H](Cc2c[nH]c3ccccc23)C(=O)N2CCC[C@H]2C(=O)N[C@H](CCCCNC(=O)CN2CCN(CC(=O)O)CCN(CC(=O)O)CCN(CC(=O)O)CC2)C(N)=O)NC(=O)[C@H](CC(=O)O)NC(=O)[C@H](Cc2cnc[nH]2)NC(=O)[C@H](Cc2ccc3ccccc3c2)NC(=O)[C@H](CC2CCNCC2)NC(=O)[C@H](CC(N)=O)NC1=O [compound 267, Ac-W-T-I-C(3)-N-[3-(4-piperidinyl)-Ala]-(2Nal)-H-D-C(3)-W-P-[D-Lys(DOTA)]-NH2] (Ac-WTICN[Ala(piperidin-4-yl)][2Nal]HDCWP[dK](DOTA)-NH2; disulfide 4-10)
Kd (human DLL3): < 1 nM
% Internalization (out of bound fraction) (CT26.DLL3 cells [1]): B (25<%≤50)
kidney uptake (% IA/g) (SHP-77 tumors): C (0 < % IA/g ≤ 10 in kidney)
tumor uptake (% IA/g) (SHP-77 tumors): A (0 < % IA/g ≤ 5 in tumor)
% Binding (CT26.DLL3 cells [2]): A (%≤25)
